Test results taken from patent US20110086828A1, “TREATMENT OF ALCOHOL ABUSE AND […] MODULATORS OF NE[…] SITES ON GABAA RECEPTORS” (Board of Supervisors of Louisiana State University and …, priority 2009, published 2011).

Tested on: male Long-Evans hooded rats
Assay: two-bottle ethanol preference test (ethanol intake) after i.p. neuroactive steroid
Format: in vivo, rat
Settings: for ethanol intake vs baseline / volume of ethanol intake vs baseline: 10 and 56 mg/kg i.p. 15 min before 30-min session; for water intake: 10 and 56 mg/kg i.p.; for effect on ethanol intake (oral self administration of ethanol): summary statement, twenty-two male Long-Evans hooded rats
Experimental: Upon arrival, these subjects were housed 4 per cage and provided a diet of standard rodent chow ad libitum (Rodent Diet 5001, PMI Inc., St. Louis, Mo., USA) until postnatal day (hereinafter “PD”) 70. From PD 71 forward, the subjects were housed individually and maintained at 95% of their free-feeding weight during which a saccharin-fading procedure was conducted. Water was provided ad libitum in the home cage except during the experimental sessions. The home cage was made of polypropylene plastic and contained hardwood chip bedding. The colony room was maintained at 21±2 C.° with 50±10% relative humidity on a 14L:10D (light/dark) cycle (lights on 06:00 hours (h); lights off 20:00 h). Following training under the saccharin-fading procedure, the subjects were returned to ad libitum feeding conditions for 73 (minimum) to 89 (maximum) days during which an ethanol concentration-effect curve was established. After this curve was obtained, subjects were maintained at 95% of their free-feeding weight for the rest of the study. Ethanol preference training and experimental sessions were conducted daily during the light cycle between the hours of 12:00 h and 14:00 h. Subjects used in these studies were maintained in accordance with the Institutional Animal Care and Use Committee, Louisiana State University Health Sciences Center, and in compliance with the guidelines of the National Institute of Health Guide for Care and Use of Laboratory Animal Resources (publication No. 85-23, revised 1996).
While still housed 4 per cage, subjects were randomly divided into two groups, a group that received ethanol between PD 35 and 63 (adolescent ethanol group) and a group that received saline during the same postnatal period (adolescent saline group). The adolescent ethanol group (n=11) received 2 g/kg of ethanol intraperitoneally (hereinafter “i.p.”) every other day, whereas the adolescent saline group (n=11) received an equal volume of saline every other day, for a total of 15 injections.
Subjects were trained to consume ethanol orally using a modified saccharin/ethanol fading procedure (Samson, 1986; Leonard et al., 2006) starting on PD 75. Prior to each daily training session, animals were weighed and then returned to their home cage. Water bottles were removed and replaced for 30 min with 50-ml plastic centrifuge tubes containing a saccharin/ethanol solution and fitted with a rubber stopper and metal sipper tube. At the end of the 30-min session, the drinking tubes were removed, water bottles were replaced, and the volume of the solution consumed was determined by weighing the tubes (i.e., [(weight prior to the session—weight after the session)-0.4 ml)]. All solutions were prepared fresh daily. Rats initially received a 0.2% sodium saccharin(weight (g of sodium saccharin)/volume (100 mL solution))/0% ethanol (volume (mL of alcohol)/volume (100 mL solution)) solution that was gradually replaced until a solution of 0% sodium saccharin/10% ethanol was achieved. After a subject acquired stable saccharin/ethanol intake (±20% of the mean for 3 consecutive days) or a maximum of 8 days elapsed, the next sodiumsaccharin/ethanol solution was presented. Solutions were presented in the following order: 0.2% saccharin/0% ethanol, 0.15% saccharin/0.5% ethanol, 0.125% saccharin/1% ethanol, 0.1% saccharin/2% ethanol, 0.05% saccharin/5% ethanol, 0.01% saccharin/8% ethanol, and 0% saccharin/10% ethanol. Training, which took 40-57 sessions, and all subsequent testing were conducted 7 days per week.
After a stable baseline of ethanol drinking was established with a 10% ethanol solution, a concentration-effect curve for ethanol and water consumption was established using the standard two-bottle preference test. During these tests, subjects were allowed simultaneous access to two drinking tubes daily for 60 min in their home cage. […]

SMILES | ethanol intake volume (56 mg/kg i.p., every ethanol concentration except the 18% concentration) | ethanol intake, first day of injection (100 mg/kg i.p. (highest dose), 18% ethanol, p<0.001, n=22) | shift of ethanol concentration-effect curve (10, 32 and 56 mg/kg i.p. with ethanol 3.2-32%, p<0.05) | ethanol intake at varying ethanol concentrations (10 and 32 mg/kg i.p., both doses comparable) | ethanol intake vs baseline (18% ethanol) | volume of ethanol intake vs baseline (18% ethanol) | water intake (30-min preference session) | ethanol intake vs vehicle, after stability criterion met (10 to 100 mg/kg i.p., 18% ethanol, p<0.05, n=22) | effect on ethanol intake (oral self administration of ethanol) | intake of 18% ethanol solution vs vehicle, after stability criterion met (10 mg/kg i.p., Holm-Sidak post-hoc, n=22) | sedative effects (highest dose of pregnanolone) | intake of 18% ethanol solution, first day of injection, comparison between doses (pregnanolone 3.2 mg/kg i.p. vs 1.8, 5.6 and 10 mg/kg, p<0.05) | intake of 18% ethanol solution vs vehicle, first day of injection (pregnanolone 1-10 mg/kg i.p., 30-min preference session, n=22)
C[C@]12CC[C@H](O)CC1=CC[C@@H]1[C@@H]2CC[C@]2(C)C(=O)CC[C@@H]12 [DHEA, 5-androstene-3β-ol-17-one] | below 1 ml | significant effect | shifted downward significantly | decreased the intake of ethanol concentrations ranging from 3.2 and 18% | dose-dependent decreases | dose-dependent decreases | not significantly different | significantly decreased intake | markedly reduce oral self administration of ethanol | – | – | – | –
CC(=O)[C@H]1CC[C@H]2[C@@H]3CC[C@@H]4C[C@H](O)CC[C@]4(C)[C@H]3CC[C@]12C [pregnanolone, 5β-pregnan-3α-ol-20-one] | – | – | – | – | – | – | – | – | no apparent effect on ethanol intake | significantly differed from vehicle | produced sedative effects | significantly higher | none of the effects of dose were different from vehicle
CC(=O)OC1CC[C@@]2(C)C(=CC(=O)[C@@H]3[C@@H]2CC[C@]2(C)C(=O)CC[C@@H]32)C1 (some centres unmarked) [7-keto-DHEA, 3-acetyl-7-oxo-dehydroepiandrosterone] | – | – | – | – | dose-dependent decreases | dose-dependent decreases | not significantly different | – | – | – | – | – | –
